Test system: GABA-A receptor
Test: block of evoked GABA-A receptor currents in layer […] pyramidal neurons

Compound	EC50 [µM]
COc1ccc([N+](=O)[O-])c2c1CCN2C(=O)CC[C@H](N)C(=O)O [MNI-Glu]	105
DEAC450-Glu [compound 7]	~33
RuBi-Glu	7.7

Source: publication PMC4079120 (Journal of the American Chemical Society, 2013)
